# Source: patent US10793580B2, “Substituted pyrazoloazepin-8-ones and their use as phosphodiesterase inhibitors” (LEO Pharma A/S, priority 2016, dated 2020)
# Where two headings read alike, the source gives them in different places.
# Target: human PDE4D catalytic domain (Homo sapiens (Human), UniProt Q08499)
# Experiment: PDE4 Assay (TR-FRET, FAM-cAMP cleavage)
# Assay type: biochemical
# Conditions: read-out: PDE4 IC50 range
# How it was run: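 PDE4D catalytic domain (S380-L740) incubated briefly with unlabelled cAMP plus FAM-cAMP and titrated compound. Reaction stopped with binding buffer holding metal-ion nanoparticles that bind AMP phospho groups and Tb donor, and AMP formation read by TR-FRET. IC50 versus controls, reported as ranges (nM).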
# [1] = human PDE4D catalytic domain (UniProt Q08499 [S380-L740]), 50% inhibition of substrate cleavage
# Chain of human PDE4D catalytic domain (Q08499 380-740): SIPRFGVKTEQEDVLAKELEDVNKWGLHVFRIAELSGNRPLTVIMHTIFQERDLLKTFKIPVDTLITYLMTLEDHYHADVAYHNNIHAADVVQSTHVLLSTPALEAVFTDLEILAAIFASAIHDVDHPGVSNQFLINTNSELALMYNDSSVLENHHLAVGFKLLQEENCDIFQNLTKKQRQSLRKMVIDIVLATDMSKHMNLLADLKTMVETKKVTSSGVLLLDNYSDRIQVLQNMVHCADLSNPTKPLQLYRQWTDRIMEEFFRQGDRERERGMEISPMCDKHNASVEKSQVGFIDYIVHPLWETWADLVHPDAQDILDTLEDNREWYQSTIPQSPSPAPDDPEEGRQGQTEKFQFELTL
SMILES,IC50 [1] [nM],also measured
"CCn1nc(C[C@@H](C)COC(=O)c2csc(C)n2)c2c1C(=O)NCC1(CCOCC1)C2 [Example 290, [(2R)-3-(1-ethyl-8-oxo-spiro[6,7-dihydro-4H-pyrazolo[3,4-c]azepine-5,4′-tetrahydropyran]-3-yl)-2-methyl-propyl] 2-methylthiazole-4-carboxylate]",–,"IC50 (Table 16, Examples 277-296): < 100 nM"
"CCn1nc(CCCOC(=O)c2cc(C(F)(F)F)ccc2C)c2c1C(=O)NCC1(CCOCC1)C2 [Example 67, 3-(1-ethyl-8-oxo-spiro[6,7-dihydro-4H-pyrazolo[3,4-c]azepine-5,4′-tetrahydro-pyran]-3-yl)propyl 2-methyl-5-(trifluoromethyl)benzoate]",< 100,–
"CCn1nc(CC(C)(C)COC(=O)c2cnn(C)c2)c2c1C(=O)NCC1(CCOCC1)C2 [Example 299, [3-(1-ethyl-8-oxo-spiro[6,7-dihydro-4H-pyrazolo[3,4-c]azepine-5,4′-tetrahydropyran]-3-yl)-2,2-dimethyl-propyl] 1-methylpyrazole-4-carboxylate]",–,"IC50 (Table 17, Examples 297-316): < 100 nM"
"CCn1nc(CC(C)(C)COC(=O)C2CCN(C)CC2)c2c1C(=O)NCC1(CCOCC1)C2 [Example 312, [3-(1-ethyl-8-oxo-spiro[6,7-dihydro-4H-pyrazolo[3,4-c]azepine-5,4′-tetrahydropyran]-3-yl)-2,2-dimethyl-propyl] 1-methylpiperidine-4-carboxylate]",–,"IC50 (Table 17, Examples 297-316): 100 to 500 nM"
"CCn1nc(C[C@@H](C)COC(=O)c2cccc(C(=O)N3CCOCC3)c2)c2c1C(=O)NCC1(CCOCC1)C2 [Example 183, [(2R)-3-(1-ethyl-8-oxo-spiro[6,7-dihydro-4H-pyrazolo[3,4-c]azepine-5,4′-tetrahydropyran]-3-yl)-2-methyl-propyl] 3-(morpholine-4-carbonyl)benzoate]",< 100,–
"CCn1nc(CCCCOC(=O)c2ccc(F)cc2)c2c1C(=O)NCC1(CCOCC1)C2 [Example 124, 4-(1-ethyl-8-oxo-spiro[6,7-dihydro-4H-pyrazolo[3,4-c]azepine-5,4′-tetrahydropyran]-3-yl)butyl 4-fluorobenzoate]",< 100,–
"CCn1nc(CCCCOC(=O)c2ccc(OC)cc2)c2c1C(=O)NCC1(CCOCC1)C2 [Example 125, 4-(1-ethyl-8-oxo-spiro[6,7-dihydro-4H-pyrazolo[3,4-c]azepine-5,4′-tetrahydropyran]-3-yl)butyl 4-methoxybenzoate]",< 100,–
"CCn1nc(CC(C)(C)COC(=O)c2coc(C)n2)c2c1C(=O)NCC1(CCOCC1)C2 [Example 301, [3-(1-ethyl-8-oxo-spiro[6,7-dihydro-4H-pyrazolo[3,4-c]azepine-5,4′-tetrahydropyran]-3-yl)-2,2-dimethyl-propyl] 2-methyloxazole-4-carboxylate]",–,"IC50 (Table 17, Examples 297-316): < 100 nM"
"CCn1nc(CCCOC(=O)c2cc(Cl)cc(C(F)(F)F)c2)c2c1C(=O)NCC1(CCOCC1)C2 [Example 90, 3-(1-ethyl-8-oxo-spiro[6,7-dihydro-4H-pyrazolo[3,4-c]azepine-5,4′-tetrahydro-pyran]-3-yl)propyl 3-chloro-5-(trifluoromethyl)benzoate]",< 100,–
"CCn1nc(CC(C)(C)COC(=O)c2ccc(F)cc2)c2c1C(=O)NCC1(CCOCC1)C2 [Example 192, [3-(1-ethyl-8-oxo-spiro[6,7-dihydro-4H-pyrazolo[3,4-c]azepine-5,4′-tetrahydropyran]-3-yl)-2,2-dimethyl-propyl] 4-fluorobenzoate]",< 100,–
"CCn1nc(CCCOC(=O)c2cccc(Cl)c2OC)c2c1C(=O)NCC1(CCOCC1)C2 [Example 59, 3-(1-ethyl-8-oxo-spiro[6,7-dihydro-4H-pyrazolo[3,4-c]azepine-5,4′-tetrahydropyran]-3-yl)propyl 3-chloro-2-methoxy-benzoate]",< 100,–
"CCn1nc(CC(C)(C)COC(=O)c2cccc(C)c2)c2c1C(=O)NCC1(CCOCC1)C2 [Example 190, [3-(1-ethyl-8-oxo-spiro[6,7-dihydro-4H-pyrazolo[3,4-c]azepine-5,4′-tetrahydropyran]-3-yl)-2,2-dimethyl-propyl] 3-methylbenzoate]",< 100,–
